Test results taken from US6673770B1, “Peptides for the treatment, prophylaxis, diagnosis and monitoring of autoimmune diseases” (Upither B.V., priority 1998, dated 2004).
Where two headings read alike, the source gives them in different places. Ends that are not written are not given here. Peptide text beside a SMILES is read from it.

T1: MHC class II RT1.B^L (Rattus norvegicus, UniProt P20037+P29826)
T1 sequence (P20037 24-256): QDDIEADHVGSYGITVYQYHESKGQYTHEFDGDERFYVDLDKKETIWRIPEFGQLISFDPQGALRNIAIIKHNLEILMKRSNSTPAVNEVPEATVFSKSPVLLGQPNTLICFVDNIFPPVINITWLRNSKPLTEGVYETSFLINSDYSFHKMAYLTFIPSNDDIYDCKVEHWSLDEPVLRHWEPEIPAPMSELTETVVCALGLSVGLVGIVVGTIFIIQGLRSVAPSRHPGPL
T1 sequence (P29826 28-263): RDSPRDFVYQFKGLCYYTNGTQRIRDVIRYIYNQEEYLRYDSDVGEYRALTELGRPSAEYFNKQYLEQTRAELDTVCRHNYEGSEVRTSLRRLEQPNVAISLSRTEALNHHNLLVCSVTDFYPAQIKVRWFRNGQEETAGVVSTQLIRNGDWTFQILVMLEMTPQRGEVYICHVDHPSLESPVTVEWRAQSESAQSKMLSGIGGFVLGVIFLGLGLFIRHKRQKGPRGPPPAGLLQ

T2: DRB1*0401 molecules, detergent solubilised (human), P01903
T2 chain 1: not shown
T2 chain 2: not shown


Legend:
[1] = biological target: T1, MHC class II RT1.B^L; experiment: MHC-peptide competition binding assay on isolated RT1.B^L molecules; set-up: species or system Lewis rat
Text: Because the rat self-antigen to which the A2b T-clone is reactive is not known at present time, the present inventors have designed a computer search strategy based on the interactions of the mycobacterial hsp65 178-186 peptide within the trimolecular complex of MHC class II (RT1.B^L)-mycobacterial hsp65 178-186-T-cell receptor of clone A2b, to identify relevant candidate arthritis-associated antigens that can serve as target for autoimmune T-cell mediated tissue destruction in arthritis. Within the mycobacterial hsp65 178-186 sequence, residues involved in MHC binding have been identified by using an MHC-peptide binding assay on isolated MHC class II RT1.B^L proteins. The residues which have an important role in determining the RT1.B^L binding affinity of the mycobacterial hsp65 178-186 peptide, the so-called MHC anchor residues were determined. By studying the MHC-peptide binding affinities of other non-related peptides, a general MHC-peptide binding motif for the Lewis rat RT1.B1 molecule was defined (Wauben et al., Int. Immunol. 9:281 (1997)). For the definition of residues within the minimal core sequence mycobacterial hsp65 180-186, interacting with the T-cell receptor of the A2b T cell clone, the results derived from MHC-peptide binding assays, and proliferation assays of the A2b T cell clone were integrated.
#RT1.B^L binding affinity is expressed as 50%ID (=inhibitory dose). The 50%ID value indicates the concentration of peptide needed to inhibit 50% binding of the marker peptide in a competition assay on isolated RT1.B^L molecules.

[2] = test system: T cell clone A2b; experiment: Recognition by A2b T-cell clone: proliferation and/or activation marker expression; type: cell-based, Lewis rats; conditions: positive: proliferation more than 2 times background in 2 of 4 experiments and/or activation marker upregulation in 2 of 3 experiments
Protocol: As an immediate read-out for mimicry peptides T-cell activation is measured by proliferation, TcR downregulation, expression of activation markers, and cytokines responses of clone A2b. In addition A2b-like T cells from arthritic rats are isolated, and activation of such cells is measured by, proliferation, TcR downregulation, expression of activation markers, and cytokines responses. Furthermore, T-cell lines are generated after immunisation with MT/IFA or selected peptides/DDA. The cross-reactive nature of the peptide specific T-cell responses is analysed in vitro by determining the recognition of both the self peptide as well as the mycobacterial hsp65 178-186 peptide. After testing the panel of n=65 peptides for induction of proliferation of T cell clone A2b, and/or induction of expression of activation markers, n=20 peptides (SEQ ID NOs: 15, 19, 20, 21, 22, 23, 24, 26, 30, 31, 32, 33, 35, 49, 51, 61, 63, 65, 67, 69) were considered positive. Criteria for positivity were that in 2 out of 4 experiments the induced proliferation was more than 2 times background proliferation as measured by ^3H-thymidine incorporation, and/or that in 2 out of 3 experiments upregulation of an activation marker was detectable by FACS analysis.

[3] = test system: T cells from inguinal and popliteal lymph nodes and spleen; experiment: T-cell recognition (proliferation) during adjuvant arthritis time course; type: cell-based, Lewis rats; conditions: positive: proliferation more than 1.5 times background in more than 25% of organs; days 14, 19, 21, 32, 39
[4] = biological target: DRB1*0401 (Homo sapiens, UniProt P01903+P01911, A100K/A169T/F76Y/I96L/K127E/L162R/M171V/N62H/P40V/Q125Y/R42H/S133A/S149N/S66Y/V115G/V209L/W38E); experiment: MHC-peptide competition binding assay on isolated DRB1*0401 molecules
Protocol: T-cell responses to the selected peptides in patients are analysed by studying T-cell proliferation of peripheral blood lymphocytes (PBL) and synovial fluid derived cells. […] In these human studies the peptides are tested as 15-mers containing the 9-mer sequence of Table 2 as core sequence. […] The MHC binding affinity of the selected peptides is analysed for the most-common MHC class II-arthritis associations. […] The peptide binding affinity is tested in a MHC-peptide competition assay on isolated MHC molecules in the presence of a labelled marker peptide.
# MHC-peptide binding was measured as described in Wauben et al., Int. Immunol. […] Peptide binding is expressed as tire IC50.

[5] = biological target: T2, DRB1*0401 molecules, detergent …; experiment: competition assay on detergent solubilised DRB1*0401 (1 µM) with biotinylated HA-marker peptide (100 nM)
[6] = DRB1*0401 1 μM, biotinylated HA-marker peptide 100 nM, peptide 0-256 μM, read-out: DRB1*0401 binding (IC50)

| Molecule | Recognition by T cell clone A2b [2] | T-cell recognition during adjuvant arthritis [3] | further results |
| --- | --- | --- | --- |
| TFGLQAELT [SEQ ID NO: 9, TFGLQAELT] |  |  | IC50 [1]: 32 to 64 µM |
| IDTAVLHLD (listed as Rattus sp.) [SEQ ID NO: 33] | positive | positive |  |
| TAGLQLELT [SEQ ID NO: 5, TAGLQLELT] |  |  | IC50 [1]: 64 to 128 µM |
| IPTVNENLE (listed as Rattus sp.) [SEQ ID NO: 35] | positive | positive |  |
| TFGLQLALT [SEQ ID NO: 10, TFGLQLALT] |  |  | IC50 [1]: 128 to 256 µM |
| LRSPVISIE (listed as Mus musculus) [SEQ ID NO: 24] | positive | positive |  |
| TFGLALELT [SEQ ID NO: 8, TFGLALELT] |  |  | IC50 [1]: > 256 µM |
| SGSFTTALD (listed as Homo sapiens) [SEQ ID NO: 65] | positive | positive |  |
| EDLVGSASGDLDLGK [SEQ ID NO: 75, EDLVGSASGDLDLGK] |  |  | IC50 [4, 6]: 32 to 64 µM |
| TFALQLELT [SEQ ID NO: 6, TFALQLELT] |  |  | IC50 [1]: 32 to 64 µM |
| TRSGNCYLD (listed as Homo sapiens) [SEQ ID NO: 54] |  | positive |  |
| MTSLKSVNGQIESLI [SEQ ID NO: 78, MTSLKSVNGQIESLI] |  |  | IC50 [4, 6]: 64 to 128 µM |
| LKSLSSQIE (listed as Homo sapiens) [SEQ ID NO: 19] | positive |  |  |
| GHSPPDDVD (listed as Homo sapiens) [SEQ ID NO: 51] | positive | positive |  |
| FFSGSSQLE (listed as Rattus sp.) [SEQ ID NO: 49] | positive | positive |  |
| QLLGVSASVPVEHRD [SEQ ID NO: 76, QLLGVSASVPVEHRD] |  |  | IC50 [4, 6]: 32 to 64 µM |
| SHSAVCHLE (listed as Homo sapiens) [SEQ ID NO: 36] |  | positive |  |
| QGTIDTAVLHLDTNL [SEQ ID NO: 72, QGTIDTAVLHLDTNL] |  |  | IC50 [4]: 8 to 16 µM |
| SYRLRSPVISIDPPS [SEQ ID NO: 74, SYRLRSPVISIDPPS] |  |  | IC50 [4, 6]: 16 to 32 µM |
| SHSFPATLE (listed as Homo sapiens) [SEQ ID NO: 47] |  | positive |  |
| LRSINQGLD (listed as Rattus sp.) [SEQ ID NO: 67] | positive |  |  |
| VGSASGALD (listed as Rattus sp.) [SEQ ID NO: 20] | positive | positive |  |
| CC(C)C[C@H](NC(=O)[C@H](CCC(=O)O)NC(=O)[C@H](CC(=O)O)NC(=O)[C@@H](NC(=O)[C@@H]1CCCN1C(=O)[C@@H](NC(=O)CNC(=O)[C@H](CO)NC(=O)CNC(=O)CNC(=O)[C@@H](N)CC(C)C)[C@@H](C)O)C(C)C)C(=O)N[C@@H](CC(=O)O)C(=O)N[C@@H](CCCCN)C(=O)N[C@@H](CS)C(=O)N[C@@H](CS)C(=O)O [SEQ ID NO: 79, LGGSGTPVDELDKCC] (H-LGGSGTPVDELDKCC-OH) |  |  | IC50 [4, 6]: 128 to 256 µM |
| GVSASVPVE (listed as Rattus sp.) [SEQ ID NO: 30] | positive | positive |  |

| Molecule | Recognition by T cell clone A2b [2] | T-cell recognition during adjuvant arthritis [3] | further results |
| --- | --- | --- | --- |
| SGTPVDDLD (listed as Rattus sp.) [SEQ ID NO: 63] | positive | positive |  |
| PDSAPGEIE (listed as Rattus sp.) [SEQ ID NO: 31] | positive | positive |  |
| LGSGSTRLE (listed as Homo sapiens) [SEQ ID NO: 40] |  | positive |  |
| SFSPTCVLE (listed as Homo sapiens) [SEQ ID NO: 38] |  | positive |  |
| ISSFCTVVD (listed as Rattus sp.) [SEQ ID NO: 61] | positive |  |  |
| LPSGGESLE (listed as Rattus sp.) [SEQ ID NO: 21] | positive | positive |  |
| NISLVGCIE (listed as Rattus sp.) [SEQ ID NO: 32] | positive |  |  |
| LRSPVISID (listed as Homo sapiens) [SEQ ID NO: 23] | positive | positive |  |
| VMSFVNMVE (listed as Homo sapiens) [SEQ ID NO: 69] | positive |  |  |
| QPLVQTAVTNIDRPK [SEQ ID NO: 77, QPLVQTAVTNIDRPK] |  |  | IC50 [4, 6]: 32 to 64 µM |
| TTTVSSFSLNVEYAI [SEQ ID NO: 80, TTTVSSFSLNVEYAI] |  |  | IC50 [4, 6]: 128 to 256 µM |
| LPSGGDDLE (listed as Rattus sp.) [SEQ ID NO: 22] | positive | positive |  |
| EDLVGSASGDLDLGK (modifications not checked) [Aggrecan (1): …] |  |  | IC50 [5]: 32 to 64 µM |
| SSFWPSLPSGVDAAY (modifications not checked) [MMP-3 (1): …] |  |  | IC50 [5]: 16 to 32 µM |
| QLLGVSASVPVEHRD (modifications not checked) [Chondroitin sulf.(1): …] |  |  | IC50 [5]: 32 to 64 µM |
| QPLVQTAVTNIDRPK (modifications not checked) [Fibronectin: …] |  |  | IC50 [5]: 32 to 64 µM |
| MTSLKSVNGQIESLI (modifications not checked) [(Pro)collagen α1(III): …] |  |  | IC50 [5]: 64 to 128 µM |
| LGGSGTPVDELDKCC (not fully specified; cysteine pairing not given here) [Phospholipase A2: …] |  |  | IC50 [5]: 128 to 256 µM |
| FFYFFTGSSQLEFDP (modifications not checked) [MMP-3 (2): …] |  |  | IC50 [5]: 8 µM |
| SAFWPSLPSYLDAAY (modifications not checked) [MMP-10: …] |  |  | IC50 [5]: 8 to 16 µM |
| QGTIDTAVLHLDTNL (modifications not checked) [Chondroitin sulf.(4): …] |  |  | IC50 [5]: 8 to 16 µM |
| SYRLRSPVISIDPPS (modifications not checked) [Perlecan: …] |  |  | IC50 [5]: 16 to 32 µM |
| TTTVSSFSLNVEYAI (modifications not checked) [Versican: …] |  |  | IC50 [5]: 128 to 256 µM |
